One may read the IC50 as the concentration that gives 50% inhibition. A word on the Ki: it is the equilibrium dissociation constant of an inhibitor or competing ligand from its target.

Drawing on ChEMBL document CHEMBL1909046, “DrugMatrix in vitro pharmacology data”, this text covers IC50 and Ki for 14 compounds.

The target in data set [1] is Cannabinoid receptor 1 (Homo sapiens, UniProt P21554). It counts as cell membranes, Membrane. The conditions noted are these: chem-1. Also: in other assays of this panel Not Active means under 50% inhibition at 10 µM.
Sequence of Cannabinoid receptor 1 (P21554 whole entry): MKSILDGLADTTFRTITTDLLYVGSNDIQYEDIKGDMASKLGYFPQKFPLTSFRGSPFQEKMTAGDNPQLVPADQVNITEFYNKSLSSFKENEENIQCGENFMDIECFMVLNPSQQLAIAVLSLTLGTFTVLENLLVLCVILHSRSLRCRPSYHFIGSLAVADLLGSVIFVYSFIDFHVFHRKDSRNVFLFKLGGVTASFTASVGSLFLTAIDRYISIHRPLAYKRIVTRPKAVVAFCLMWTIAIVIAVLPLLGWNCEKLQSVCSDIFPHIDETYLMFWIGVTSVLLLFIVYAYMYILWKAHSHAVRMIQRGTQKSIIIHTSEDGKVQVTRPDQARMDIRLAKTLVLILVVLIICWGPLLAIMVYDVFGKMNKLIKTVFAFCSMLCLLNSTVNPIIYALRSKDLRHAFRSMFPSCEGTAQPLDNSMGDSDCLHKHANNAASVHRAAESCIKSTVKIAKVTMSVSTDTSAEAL
Data set [2] concerns the target T1, Vasoactive intestinal polypeptide receptor 1 (Homo sapiens, UniProt P32241). Also: in other assays of this panel Not Active means under 50% inhibition at 10 µM.
T1 sequence (P32241 whole entry): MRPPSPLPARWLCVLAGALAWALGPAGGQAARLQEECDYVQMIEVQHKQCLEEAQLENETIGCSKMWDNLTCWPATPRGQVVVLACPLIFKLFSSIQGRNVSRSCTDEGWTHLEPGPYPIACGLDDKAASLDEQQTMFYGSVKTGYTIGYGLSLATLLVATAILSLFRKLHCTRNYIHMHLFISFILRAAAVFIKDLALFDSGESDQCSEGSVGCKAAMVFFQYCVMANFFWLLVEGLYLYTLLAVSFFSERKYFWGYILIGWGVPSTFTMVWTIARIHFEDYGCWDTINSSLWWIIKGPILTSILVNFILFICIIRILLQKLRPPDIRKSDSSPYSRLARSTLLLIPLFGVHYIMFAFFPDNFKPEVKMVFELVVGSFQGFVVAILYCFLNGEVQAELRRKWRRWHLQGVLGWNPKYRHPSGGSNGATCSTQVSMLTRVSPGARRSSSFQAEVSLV
Type of data set: cell membranes, Membrane. The conditions noted are these: ht-29.

Data set [3] has as its target T2, Cholecystokinin receptor type A (Homo sapiens, UniProt P32238). Also: in other assays of this panel Not Active means under 50% inhibition at 10 µM.
T2 sequence (P32238 whole entry): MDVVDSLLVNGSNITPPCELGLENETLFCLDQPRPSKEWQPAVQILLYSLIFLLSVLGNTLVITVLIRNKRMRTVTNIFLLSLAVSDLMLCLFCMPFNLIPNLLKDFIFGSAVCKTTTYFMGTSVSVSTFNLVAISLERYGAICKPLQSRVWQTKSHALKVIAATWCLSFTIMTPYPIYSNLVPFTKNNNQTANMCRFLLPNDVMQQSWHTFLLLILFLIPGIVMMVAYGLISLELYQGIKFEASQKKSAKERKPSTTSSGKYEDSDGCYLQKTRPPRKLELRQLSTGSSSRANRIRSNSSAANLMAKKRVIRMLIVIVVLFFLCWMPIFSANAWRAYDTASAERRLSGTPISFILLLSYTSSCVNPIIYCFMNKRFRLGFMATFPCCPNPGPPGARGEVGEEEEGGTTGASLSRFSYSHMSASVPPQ
It counts as cell membranes, Membrane. The conditions noted are these: 1321-n1.

For data set [4], the target named is cGMP-specific 3',5'-cyclic phosphodiesterase (Homo sapiens, UniProt O76074). The data set is described as follows: DRUGMATRIX: Phosphodiesterase PDE5 enzyme inhibition (substrate: [3H]cGMP + cGMP). Type of data set: tissue-based. The note with it: platelet; Not Active = under 50% inhibition at 10 µM.
Data set [5] deals with Cytochrome P450 2E1 (Homo sapiens, UniProt P05181). The conditions noted are these: bti-tn-5b1-4.
Sequence of Cytochrome P450 2E1 (P05181 whole entry): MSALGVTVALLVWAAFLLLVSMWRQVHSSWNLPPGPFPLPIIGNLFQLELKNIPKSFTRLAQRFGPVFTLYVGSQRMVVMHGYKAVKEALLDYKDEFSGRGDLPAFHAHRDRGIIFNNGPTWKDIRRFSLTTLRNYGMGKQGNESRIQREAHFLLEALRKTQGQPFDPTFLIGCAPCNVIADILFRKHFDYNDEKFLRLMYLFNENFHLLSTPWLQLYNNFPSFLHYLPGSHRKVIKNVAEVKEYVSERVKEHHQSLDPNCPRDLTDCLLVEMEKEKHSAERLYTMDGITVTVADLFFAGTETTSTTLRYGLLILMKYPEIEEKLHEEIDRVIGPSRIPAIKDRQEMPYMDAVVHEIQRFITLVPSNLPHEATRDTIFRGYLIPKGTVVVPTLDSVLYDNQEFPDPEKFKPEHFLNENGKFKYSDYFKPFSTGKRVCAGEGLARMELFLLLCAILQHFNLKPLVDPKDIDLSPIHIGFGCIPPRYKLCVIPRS
Data set [6] in a line: DRUGMATRIX: Nicotinic Acetylcholine radioligand binding (ligand: [125I] Epibatidine). The conditions noted are these: imr-32; Not Active = under 50% inhibition at 10 µM. It counts as cell membranes, Membrane.
The target of data set [7] is Kappa-type opioid receptor (Homo sapiens, UniProt P41145). Nature of the data set: DRUGMATRIX: Opiate kappa (OP2, KOP) radioligand binding (ligand: [3H] Diprenorphine). It counts as cell membranes, HEK293, Membrane. The conditions noted are these: Not Active = under 50% inhibition at 10 µM.
Sequence of Kappa-type opioid receptor (P41145 whole entry): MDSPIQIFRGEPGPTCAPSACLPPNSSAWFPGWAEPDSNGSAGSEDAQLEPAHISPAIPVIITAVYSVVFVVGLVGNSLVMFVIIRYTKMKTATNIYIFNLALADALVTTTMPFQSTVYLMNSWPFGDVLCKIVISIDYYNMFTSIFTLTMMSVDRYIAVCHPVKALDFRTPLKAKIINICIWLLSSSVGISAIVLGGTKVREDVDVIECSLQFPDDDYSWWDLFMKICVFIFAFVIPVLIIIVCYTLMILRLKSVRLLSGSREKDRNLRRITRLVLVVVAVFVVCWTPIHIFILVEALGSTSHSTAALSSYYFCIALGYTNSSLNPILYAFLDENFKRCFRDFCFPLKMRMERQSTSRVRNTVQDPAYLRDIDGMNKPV
The target of data set [8] is Histamine H2 receptor (Homo sapiens, UniProt P25021). Type of data set: cell membranes, CHO-K1, Membrane. The conditions noted are these: cho-k1. Also: in other assays of this panel Not Active means under 50% inhibition at 10 µM.
Sequence of Histamine H2 receptor (P25021 whole entry): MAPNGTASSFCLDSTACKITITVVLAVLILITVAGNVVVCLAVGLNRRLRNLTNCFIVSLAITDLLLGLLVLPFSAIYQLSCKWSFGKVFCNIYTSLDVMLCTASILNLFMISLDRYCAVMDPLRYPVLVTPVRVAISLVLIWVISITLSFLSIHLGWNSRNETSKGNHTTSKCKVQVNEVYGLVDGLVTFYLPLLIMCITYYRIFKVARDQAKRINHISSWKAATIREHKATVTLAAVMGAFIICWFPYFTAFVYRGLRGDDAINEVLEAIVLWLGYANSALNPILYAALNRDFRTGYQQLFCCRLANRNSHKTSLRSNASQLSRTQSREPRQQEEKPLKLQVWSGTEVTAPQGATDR
Data set [9] in a line: DRUGMATRIX: Phosphodiesterase PDE3 enzyme inhibition (substrate: [3H]cAMP + cAMP). It counts as tissue-based, Homo sapiens. The conditions noted are these: platelet, Not Active = under 50% inhibition at 10 µM.

On to `CC(=O)O[C@]1(C(C)=O)CC[C@H]2[C@@H]3C=C(Cl)C4=CC(=O)[C@@H]5C[C@@H]5[C@]4(C)[C@H]3CC[C@@]21C` [CYPROTERONE ACETATE], for which the IC50 result in [1], in [2], in [3], in data set [4], in data set [5] and in data set [6] was “Not Active” throughout. Moreover, the IC50 result in data set [7] (hek293), in data set [8] and in data set [9] was “Not Active” throughout. In addition, the Ki result in data set [5], in data set [6] and in data set [9] was “Not Active” in each case.

On to `C#C[C@]1(O)CC[C@H]2[C@@H]3CCC4=Cc5oncc5C[C@]4(C)[C@H]3CC[C@@]21C` [DANAZOL], for which the IC50 result in data set [1], in data set [2], in data set [3], in data set [4], in data set [5] and in [6] was “Not Active” in each case. Further, the IC50 is 15.5 µM in data set [7] (read-out: IC50), “Not Active” in data set [8] and 2.54 µM in [9] (read-out: IC50). In addition, the results for the Ki entry in data set [5], in data set [6] and in [7] were “Not Active”, “Not Active” and 6.21 µM, respectively.

With `CCN[C@@H](C)Cc1cccc(C(F)(F)F)c1` [DEXFENFLURAMINE], the IC50 result in data set [1], in data set [2], in data set [3], in data set [4], in data set [5] and in data set [6] was “Not Active” in each case. Further, the IC50 result in [7] (hek293), in data set [8] and in data set [9] was “Not Active” in each case. Also, the Ki result in data set [5], in data set [6] and in data set [9] was “Not Active” throughout.

As to `C[C@H](C(=O)O)c1cccc(C(=O)c2ccccc2)c1` [DEXKETOPROFEN], the IC50 entry in [1], in data set [2], in data set [3], in [4], in data set [5] and in data set [6] was “Not Active” throughout. The IC50 result in data set [7] (hek293), in data set [8] and in [9] was “Not Active” in each case. In addition, the Ki result in data set [5], in data set [6] and in [9] was “Not Active” in each case.

Regarding `CN1C(=O)CN=C(c2ccccc2)c2cc(Cl)ccc21` [DIAZEPAM], the IC50 result in data set [1], in data set [2], in data set [3], in data set [4], in data set [5] and in [6] was “Not Active” throughout. In addition, the 50% inhibitory concentration (IC50) entry in data set [7] (hek293), in data set [8] and in [9] was “Not Active” each time. Further, the Ki result in data set [5], in data set [6] and in data set [9] was “Not Active” in each case.

Regarding `Cc1c(N(C)CS(=O)(=O)[O-])c(=O)n(-c2ccccc2)n1C.[Na+]` [DIPYRONE SODIUM], the IC50 entry in data set [1], in data set [2], in data set [3], in [4], in data set [5] and in data set [6] was “Not Active” in each case. Further, the IC50 entry in data set [7] (hek293), in [8] and in data set [9] was “Not Active” each time. Also, the Ki result in [5], in data set [6] and in data set [9] was “Not Active” throughout.

Take `CC(CCc1ccc(O)cc1)NCCc1ccc(O)c(O)c1` (centres undefined) [DOBUTAMINE]: the IC50 entry in data set [1], in [2], in data set [3], in data set [4], in [5] and in [6] was “Not Active” in each case. Besides, the IC50 result in data set [7] (hek293), in [8] and in data set [9] was “Not Active” throughout. Also, the Ki result in data set [5], in data set [6] and in data set [9] was “Not Active” each time.

For `CCn1cc(C(=O)O)c(=O)c2cc(F)c(N3CCNCC3)nc21` [ENOXACIN], the IC50 entry in data set [1], in data set [2], in data set [3], in data set [4], in data set [5] and in data set [6] was “Not Active” throughout. Moreover, the IC50 result in data set [7] (hek293), in data set [8] and in data set [9] was “Not Active” each time. The Ki entry in [5], in data set [6] and in data set [9] was “Not Active” each time.

Take `CCC(=O)O[C@H]1[C@H](O[C@@H]2[C@@H](C)[C@H](O[C@H]3C[C@@](C)(OC)[C@@H](O)[C@H](C)O3)[C@@H](C)C(=O)O[C@H](CC)[C@@](C)(O)[C@H](O)[C@@H](C)C(=O)[C@H](C)C[C@@]2(C)O)O[C@H](C)C[C@@H]1N(C)C` [ERYTHROMYCIN PROPIONATE]: the IC50 result in [1], in data set [2], in data set [3], in [4], in [5] and in data set [6] was “Not Active” each time. For the same compound, the IC50 result in [7] (hek293), in data set [8] and in data set [9] was “Not Active” each time. Besides, the Ki entry in [5], in [6] and in data set [9] was “Not Active” throughout.

Turning to `C=C(CC)C(=O)c1ccc(OCC(=O)O)c(Cl)c1Cl` [ETHACRYNIC ACID], the IC50 entry in data set [1], in data set [2], in [3], in [4], in data set [5] and in data set [6] was “Not Active” in each case. In addition, the IC50 result in data set [7] (hek293), in data set [8] and in [9] was “Not Active” throughout. For the same compound, the Ki entry in data set [5], in data set [6] and in data set [9] was “Not Active” throughout.

Take `C#C[C@]1(O)CC[C@H]2[C@@H]3CCc4cc(O)ccc4[C@H]3CC[C@@]21C` [ETHINYL ESTRADIOL]: the IC50 entry in data set [1], in data set [2], in data set [3], in data set [4], in [5] and in data set [6] was “Not Active” in each case. The IC50 was 25.9 µM in data set [7] (read-out: IC50), “Not Active” in data set [8] and “Not Active” in data set [9]. Besides, the Ki result is “Not Active” in data set [5], “Not Active” in data set [6], 10.4 µM in data set [7] and “Not Active” in data set [9].

As to `OCCO` [ETHYLENE GLYCOL], the IC50 entry in data set [1], in data set [2], in data set [3], in data set [4], in data set [5] and in data set [6] was “Not Active” each time. Moreover, the IC50 entry in data set [7] (hek293), in data set [8] and in data set [9] was “Not Active” in each case. In addition, the Ki result in data set [5], in [6] and in data set [9] was “Not Active” each time.

As for `CC(=O)OCC(CCn1cnc2cnc(N)nc21)COC(C)=O` [FAMCICLOVIR], the IC50 result in data set [1], in data set [2], in data set [3], in [4], in [5] and in data set [6] was “Not Active” each time. Further, the IC50 result in data set [7] (hek293), in data set [8] and in data set [9] was “Not Active” in each case. Moreover, the Ki result in data set [5], in [6] and in data set [9] was “Not Active” each time.

As to `O=C(O)Cc1ccc(-c2ccccc2)cc1` [FELBINAC], the IC50 entry in data set [1], in data set [2], in data set [3], in data set [4], in [5] and in [6] was “Not Active” throughout. The IC50 result in data set [7] (hek293), in [8] and in [9] was “Not Active” throughout. Besides, the Ki result in [5], in data set [6] and in [9] was “Not Active” each time.
